# Measured values published in patent US20230312529A1, “PYRIMIDINE SMALL-MOLECULE COMPOUND AND APPLICATION THEREOF” (WENZHOU MEDICAL UNIVERSITY, priority 2021, published 2023).
# Assays:
# Assay in all cases: Caliper Mobility Shift kinase inhibition test
# Assay type in all cases: biochemical
# [1] = molecular target: PDGFRβ (Homo sapiens (Human), UniProt P09619); settings: 100 nM; for inhibition at 0.1 µM: read-out: inhibitory rate on PDGFR-β
# Procedure: (§1) The method adopted in the test was Caliper Mobility Shift Assay, which was a detection platform based on the mobility detection technology of microfluidic chip technology. Test steps: 1.25× kinase reaction buffer (62.5 mmol/L HEPES, pH 7.5; 0.001875% Brij-35; 12.5 mmol/L MgCl2; 2.5 mM DTT) and kinase reaction stop solution (100 mmol/L HEPES, pH 7.5; 0.015% Brij-35; 0.2% Coating Reagent #3) were configured. […] Collected data was tested on Caliper to yield that inhibition ratio to kinase activity=(max−conversion)/(max−min)×100. “max” was DMSO control without adding compound, and “min” was low control. When IC50 was determined, each sample was provided with 10 dilutions, each with 2 multiple holes, and repeated for 3 times.
# According to the above-mentioned method for measuring kinase inhibitory activity, the inhibitory activity of the active compounds on other multiple kinases was measured to characterize the kinase selectivity of active inhibitors.
# [2] = molecular target: FLT3 (Homo sapiens (Human), UniProt P36888); settings: 100 nM; for inhibition at 0.1 µM: read-out: inhibitory rate on FLT3
# Procedure: as §1
# [3] = molecular target: ABL1 (Homo sapiens (Human), UniProt P00519); settings: 100 nM; for inhibition at 0.1 µM: read-out: inhibitory rate on ABL1
# Procedure: The method adopted in the test was Caliper Mobility Shift Assay, which was a detection platform based on the mobility detection technology of microfluidic chip technology. […] Collected data was tested on Caliper to yield that inhibition ratio to kinase activity=(max−conversion)/(max−min)×100. “max” was DMSO control without adding compound, and “min” was low control. When IC50 was determined, each sample was provided with 10 dilutions, each with 2 multiple holes, and repeated for 3 times.
# Chain of FLT3 (P36888 27-993): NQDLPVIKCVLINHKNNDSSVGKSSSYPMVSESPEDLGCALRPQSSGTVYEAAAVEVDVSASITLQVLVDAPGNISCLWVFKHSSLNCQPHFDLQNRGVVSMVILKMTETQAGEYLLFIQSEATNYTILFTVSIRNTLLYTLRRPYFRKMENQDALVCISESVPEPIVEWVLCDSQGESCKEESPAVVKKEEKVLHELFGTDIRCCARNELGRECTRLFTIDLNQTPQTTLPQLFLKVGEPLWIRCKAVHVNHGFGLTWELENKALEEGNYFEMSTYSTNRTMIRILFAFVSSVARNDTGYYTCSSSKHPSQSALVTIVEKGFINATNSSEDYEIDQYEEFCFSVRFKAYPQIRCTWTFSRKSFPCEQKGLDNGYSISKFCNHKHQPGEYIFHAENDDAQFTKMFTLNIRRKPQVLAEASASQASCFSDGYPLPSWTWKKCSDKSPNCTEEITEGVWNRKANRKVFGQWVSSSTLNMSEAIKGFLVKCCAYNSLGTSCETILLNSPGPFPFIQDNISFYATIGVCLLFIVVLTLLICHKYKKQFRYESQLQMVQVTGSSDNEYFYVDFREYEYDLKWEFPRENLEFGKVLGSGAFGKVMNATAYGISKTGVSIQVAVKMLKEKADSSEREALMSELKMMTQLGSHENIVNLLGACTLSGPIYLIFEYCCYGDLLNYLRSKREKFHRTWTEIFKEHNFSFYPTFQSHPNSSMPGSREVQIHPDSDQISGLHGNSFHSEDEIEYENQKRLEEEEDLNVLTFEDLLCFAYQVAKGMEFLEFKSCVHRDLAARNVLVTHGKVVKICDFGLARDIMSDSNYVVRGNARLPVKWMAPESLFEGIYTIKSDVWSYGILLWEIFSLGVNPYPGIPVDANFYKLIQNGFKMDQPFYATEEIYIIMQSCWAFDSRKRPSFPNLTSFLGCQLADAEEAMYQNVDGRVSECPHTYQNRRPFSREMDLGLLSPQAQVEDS
# Chain of ABL1 (P00519 whole entry): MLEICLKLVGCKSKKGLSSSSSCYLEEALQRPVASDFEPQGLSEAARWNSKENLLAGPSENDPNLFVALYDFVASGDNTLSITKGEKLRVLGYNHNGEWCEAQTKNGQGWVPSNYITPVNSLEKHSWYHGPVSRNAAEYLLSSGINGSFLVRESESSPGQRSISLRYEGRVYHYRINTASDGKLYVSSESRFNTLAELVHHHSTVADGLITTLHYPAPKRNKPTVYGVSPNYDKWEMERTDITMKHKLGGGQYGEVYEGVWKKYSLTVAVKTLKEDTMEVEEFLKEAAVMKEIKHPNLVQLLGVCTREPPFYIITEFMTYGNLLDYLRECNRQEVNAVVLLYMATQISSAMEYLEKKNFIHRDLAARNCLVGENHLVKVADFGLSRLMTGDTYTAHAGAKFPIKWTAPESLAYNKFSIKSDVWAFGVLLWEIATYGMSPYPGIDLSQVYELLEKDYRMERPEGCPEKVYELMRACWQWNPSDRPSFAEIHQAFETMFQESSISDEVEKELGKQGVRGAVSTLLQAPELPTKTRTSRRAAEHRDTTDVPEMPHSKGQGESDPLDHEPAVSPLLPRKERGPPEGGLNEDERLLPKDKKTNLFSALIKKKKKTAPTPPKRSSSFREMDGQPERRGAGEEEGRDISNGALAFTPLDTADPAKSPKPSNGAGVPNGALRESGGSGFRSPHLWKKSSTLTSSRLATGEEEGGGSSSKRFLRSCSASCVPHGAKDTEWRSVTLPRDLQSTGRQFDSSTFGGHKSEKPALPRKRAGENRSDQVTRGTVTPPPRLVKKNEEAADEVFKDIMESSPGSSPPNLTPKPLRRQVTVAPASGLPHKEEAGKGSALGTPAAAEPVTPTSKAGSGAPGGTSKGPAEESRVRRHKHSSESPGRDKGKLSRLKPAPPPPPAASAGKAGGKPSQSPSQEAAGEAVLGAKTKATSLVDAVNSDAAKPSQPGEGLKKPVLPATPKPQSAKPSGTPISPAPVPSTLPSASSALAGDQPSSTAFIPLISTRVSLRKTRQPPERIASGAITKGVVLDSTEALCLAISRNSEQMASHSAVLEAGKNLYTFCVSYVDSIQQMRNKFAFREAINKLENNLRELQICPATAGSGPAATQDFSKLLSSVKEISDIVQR
# Chain of PDGFRβ (P09619 33-1106): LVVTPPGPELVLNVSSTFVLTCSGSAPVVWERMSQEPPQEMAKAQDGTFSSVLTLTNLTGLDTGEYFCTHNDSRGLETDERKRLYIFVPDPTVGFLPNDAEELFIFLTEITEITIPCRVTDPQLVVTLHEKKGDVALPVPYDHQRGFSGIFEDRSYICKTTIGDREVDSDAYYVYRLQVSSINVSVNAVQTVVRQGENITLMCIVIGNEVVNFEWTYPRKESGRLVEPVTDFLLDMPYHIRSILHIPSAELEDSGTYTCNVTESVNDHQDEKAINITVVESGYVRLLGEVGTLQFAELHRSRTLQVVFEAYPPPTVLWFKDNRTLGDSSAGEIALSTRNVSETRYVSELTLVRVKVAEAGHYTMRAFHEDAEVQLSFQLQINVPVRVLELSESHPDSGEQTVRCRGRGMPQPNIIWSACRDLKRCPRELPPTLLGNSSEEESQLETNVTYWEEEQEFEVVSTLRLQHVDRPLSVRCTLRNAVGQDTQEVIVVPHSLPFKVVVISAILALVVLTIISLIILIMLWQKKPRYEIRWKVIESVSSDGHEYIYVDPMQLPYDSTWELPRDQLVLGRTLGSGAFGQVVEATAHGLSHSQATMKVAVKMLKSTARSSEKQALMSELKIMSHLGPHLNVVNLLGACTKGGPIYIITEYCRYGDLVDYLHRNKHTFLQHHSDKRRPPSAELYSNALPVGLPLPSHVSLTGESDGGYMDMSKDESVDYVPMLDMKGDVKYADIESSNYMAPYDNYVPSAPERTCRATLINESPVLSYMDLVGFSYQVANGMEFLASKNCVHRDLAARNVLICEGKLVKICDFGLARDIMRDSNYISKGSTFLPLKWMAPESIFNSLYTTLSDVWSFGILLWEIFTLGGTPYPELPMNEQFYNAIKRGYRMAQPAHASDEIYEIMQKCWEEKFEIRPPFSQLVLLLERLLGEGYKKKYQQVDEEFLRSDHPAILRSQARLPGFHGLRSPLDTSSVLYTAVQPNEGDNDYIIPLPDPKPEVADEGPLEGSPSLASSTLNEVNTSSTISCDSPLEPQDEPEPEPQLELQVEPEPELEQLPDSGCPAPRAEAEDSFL
Structure (SMILES),inhibition at 0.1 µM [1] [%],inhibition at 0.1 µM [2] [%],inhibition at 0.1 µM [3] [%],inhibitory rate on PDGFR-β [1] [%],inhibitory rate on FLT3 [2] [%],inhibitory rate on ABL1 [3] [%]
"CN1CCN(c2ccc(Nc3ncc(F)c(Nc4ccc5cn[nH]c5c4)n3)cc2)CC1 [Compound 3a, 5-fluoro-N^4-(1H-indazol-6-yl)-N^2-(4-(4-methylpiperazine-1-yl)phenyl)pyrimidine-2,4-diamine]",94.4,87.5,90.4,–,–,–
"CN1CCN(c2ccc(Nc3ncc(Cl)c(Nc4ccc5cn[nH]c5c4)n3)cc2)CC1 [Compound 3b, 5-chloro-N^4-(1H-indazol-6-yl)-N^2-(4-(4-methylpiperazine-1-yl)phenyl)pyrimidine-2,4-diamine]",95.8,90.2,95.1,–,–,–
"CN1CCN(c2ccc(Nc3ncc(C(F)(F)F)c(Nc4ccc5cn[nH]c5c4)n3)cc2)CC1 [Compound 3c, N^4-(1H-indazol-6-yl)-N^2-(4-(4-methylpiperazine-1-yl)phenyl)-5-(trifluoromethyl)pyrimidine-2,4-diamine]",81,78.6,84.2,–,–,–
"Cc1cnc(Nc2ccc(N3CCN(C)CC3)cc2)nc1Nc1ccc2cn[nH]c2c1 [Compound 3d, N^4-(1H-indazol-6-yl)-5-methyl-N^2-(4-(4-methylpiperazine-1-yl)phenyl)pyrimidine-2,4-diamine]",99.6,90.5,95.2,–,–,–
"COc1cnc(Nc2ccc(N3CCN(C)CC3)cc2)nc1Nc1ccc2cn[nH]c2c1 [Compound 3e, N^4-(1H-indazol-6-yl)-5-methoxy-N^2-(4-(4-methylpiperazine-1-yl)phenyl)pyrimidine-2,4-diamine]",55,51.2,54.3,–,–,–
"CCOC(=O)c1cnc(Nc2ccc(N3CCN(C)CC3)cc2)nc1Nc1ccc2cn[nH]c2c1 [Compound 3f, Ethyl-4-((1H-indazol-6-yl)amino)-2-((4-(4-methylpiperazine-1-yl)phenyl)amino)pyrimidine-5-carboxylate]",3.5,34.8,4.3,–,–,–
"CN1CCN(c2ccc(Nc3nc(Nc4ccc5cn[nH]c5c4)cc(C(F)(F)F)n3)cc2)CC1 [Compound 3g, N^4-(1H-indazol-6-yl)-N^2-(4-(4-methylpiperazine-1-yl)phenyl)-6-(trifluoromethyl)pyrimidine-2,4-diamine]",7.2,14.6,6.9,–,–,–
Cc1cc(Nc2ccc3cn[nH]c3c2)nc(Nc2ccc(N3CCN(C)CC3)cc2)n1 [Compound 3h],–,–,–,21.2,13.8,5.9
Cc1cnc(Nc2ccc(N3CCN(C)CC3)cc2)nc1Nc1cccc2[nH]ccc12 [Compound 5b],–,–,–,90.3,60.9,78.8
"Cc1cnc(Nc2ccc(N3CCN(C)CC3)cc2)nc1Nc1ccc2c(cnn2C)c1 [Compound 5c, 5-methyl-N^4-(1-methyl-1H-indazol-5-yl)-N^2-(4-(4-methylpiperazine-1-yl)phenyl)pyrimidine-2,4-diamine]",79.2,65.4,58.9,–,–,–
Cc1cnc(Nc2ccc(N3CCN(C)CC3)cc2)nc1Nc1ccc2[nH]ncc2c1 [Compound 5d],–,–,–,84.1,80.4,80.9
"Cc1cnc(Nc2ccc(N3CCN(C)CC3)cc2)nc1Nc1ccc2nccnc2c1 [Compound 5e, 5-methyl-N^2-(4-(4-methylpiperazine-1-yl)phenyl)-N^4-(benzopyrazine-6-yl)-pyrimidine-2,4-diamine]",74.1,–,–,–,69.8,65.5
"Cc1cnc(Nc2ccc(N3CCN(C)CC3)cc2)nc1Nc1ccc2nccnc2c1 [Compound 5f, 5-methyl-N^2-(4-(4-methylpiperazine-1-yl)phenyl)-N^4-(quinoxaline-7-yl)-pyrimidine-2,4-diamine]",–,–,–,91.0,90.5,90.2
